In US20070049564A1 (Wyeth, priority 2005, published 2007):
In brackets after ≈: the same amount, converted by molar mass. Read-outs that look alike come from different tables or passages of the source.

Legend:
[1] = test system: S. epidermidis GC 4935; assay: MIC, broth microdilution; conditions: Staphylococcus epidermidis
[2] = test system: E. coli GC 2236; assay: MIC, broth microdilution; conditions: Escherichia coli, GC2236, read-out: MINIMAL INHIBITORY CONCENTRATION MIC, pre-incubated in Water
[3] = test system: S. pyogenes GC 4563; assay: MIC, broth microdilution; conditions: for MIC: Streptococcus pyogenes
[4] = test system: P. aeruginosa GC 2214; assay: MIC, broth microdilution; conditions: Pseudomonas aeruginosa
[5] = test system: E. coli GC 2203; assay: MIC, broth microdilution; conditions: Escherichia coli, GC2203, read-out: MINIMAL INHIBITORY CONCENTRATION MIC, pre-incubated in Water
[6] = test system: E. coli GC 4559; assay: MIC, broth microdilution; conditions: Escherichia coli, GC4559, read-out: MINIMAL INHIBITORY CONCENTRATION MIC, pre-incubated in Water
[7] = test system: S. aureus GC 1131; assay: MIC, broth microdilution; conditions: Staphylococcus aureus
[8] = test system: S. pneumoniae* GC 4465; assay: MIC, broth microdilution; conditions: for MIC: Streptococcus pneumoniae
Experimental: (§1) Antimicrobial susceptibility testing. The in vitro activities of the antibiotics are determined by the broth microdilution method as recommended by the National Committee for Clinical Laboratory Standards (NCCLS) (1). Mueller-Hinton II broth (MHBII)(BBL Cockeysville, Md.) is the medium employed in the testing procedures. Microtiter plates containing serial dilutions of each antimicrobial agent are inoculated with each organism to yield the appropriate density (10^5 CFU/ml) in a 100 μl final volume. The plates are incubated for 18-22 hours at 35° C. in ambient air.
(§2) Representative compounds were first incubated in mouse serum for an hour prior to the in vitro testing against a panel of selected gram-positive and gram-negative bacteria strains. All compounds were also pre-incubated in water for an hour prior to testing as control. Representative compounds of Formula I were incubated in human serum prior to MIC determination.

[9] = test system: S. pneumoniae+ GC 4465; assay: MIC, broth microdilution; conditions: for MIC: Streptococcus pneumoniae
[10] = test system: E. coli GC 2232; assay: MIC, broth microdilution; conditions: Escherichia coli, GC2232, read-out: MINIMAL INHIBITORY CONCENTRATION MIC, pre-incubated in Water
[11] = test system: S. agalactiae GC 4564; assay: MIC, broth microdilution; conditions: Streptococcus agalactiae, GC4564, read-out: MINIMAL INHIBITORY CONCENTRATION MIC, pre-incubated in Water
[12] = test system: E. faecalis GC 2265; assay: MIC, broth microdilution; conditions: for MIC: Enterococcus faecalis
[13] = test system: E. coli GC 2271; assay: MIC, broth microdilution; conditions: Escherichia coli, GC2271, read-out: MINIMAL INHIBITORY CONCENTRATION MIC, pre-incubated in Water
[14] = test system: E. coli GC 3226; assay: MIC, broth microdilution; conditions: Escherichia coli, GC3226, read-out: MINIMAL INHIBITORY CONCENTRATION MIC, pre-incubated in Water
[15] = test system: E. faecalis GC 4555; assay: MIC, broth microdilution; conditions: for MIC: Enterococcus faecalis
[16] = test system: Staph. aureus Smith; assay: In vivo activity (oral, iv; ED50) against Staph. aureus Smith in mice
Experimental: Representative examples of compounds of Formula I were tested for the oral efficacy using S. aureus Smith in mice.

[17] = test system: E. faecalis GC 2267; assay: MIC, broth microdilution; conditions: for MIC: Enterococcus faecalis
[18] = test system: E. coli GC 2272; assay: MIC, broth microdilution; conditions: Escherichia coli, GC2272, read-out: MINIMAL INHIBITORY CONCENTRATION MIC, pre-incubated in Water
[19] = test system: S. aureus GC 6335; assay: MIC, broth microdilution; conditions: for MIC: Staphylococcus aureus
Experimental: as §1, §2

[20] = test system: E. coli GC 2234; assay: MIC, broth microdilution; conditions: Escherichia coli, GC2234, read-out: MINIMAL INHIBITORY CONCENTRATION MIC, pre-incubated in Water
[21] = read-out: MINIMAL INHIBITORY CONCENTRATION MIC, pre-incubated in Mouse Serum
[22] = read-out: MINIMAL INHIBITORY CONCENTRATION MIC, pre-incubated in Water

Structure (SMILES): CN(C)c1cc(NC(=O)CN(C(=O)OCOC(=O)CC(C)(C)C)C(C)(C)C)c(O)c2c1C[C@H]1C[C@H]3[C@H](N(C)C)C(O)=C(C(N)=O)C(=O)[C@@]3(O)C(O)=C1C2=O [Example 42, ({[(2-{[(5aR,6aS,7S,10aS)-9-(aminocarbonyl)-4,7-bis(dimethylamino)-1,8,10a,11-tetrahydroxy-10,12-dioxo-5,5a,6,6a,7,10,10a,12-octahydrotetracen-2-yl]amino}-2-oxoethyl)(tert-butyl)amino]carbonyl}oxy)methyl 3,3-dimethylbutanoate]
- MIC ([1]; GC4935, read-out: MINIMAL INHIBITORY CONCENTRATION MIC, pre-incubated in Mouse Serum): 4 µg/mL (≈ 5.28 µM)
- MIC ([1]; GC4935, read-out: MINIMAL INHIBITORY CONCENTRATION MIC, pre-incubated in Water): 8 µg/mL (≈ 10.6 µM)
- MIC [2]: > 64 µg/mL
- MIC ([3]; GC4563, read-out: MINIMAL INHIBITORY CONCENTRATION MIC, pre-incubated in Mouse Serum): 2 µg/mL (≈ 2.64 µM)
- MIC ([3]; GC4563, read-out: MINIMAL INHIBITORY CONCENTRATION MIC, pre-incubated in Water): 4 µg/mL (≈ 5.28 µM)
- MINIMAL INHIBITORY CONCENTRATION MIC ([3]; pre-incubated in Mouse Serum): 4 UG/ML
- MIC ([4]; GC2214, read-out: MINIMAL INHIBITORY CONCENTRATION MIC, pre-incubated in Mouse Serum): > 64 µg/mL
- MIC ([4]; GC2214, read-out: MINIMAL INHIBITORY CONCENTRATION MIC, pre-incubated in Water): > 64 µg/mL
- MIC [5]: > 64 µg/mL
- MIC [6]: > 64 µg/mL
- MIC ([7]; GC1131, read-out: MINIMAL INHIBITORY CONCENTRATION MIC, pre-incubated in Mouse Serum): 2 µg/mL (≈ 2.64 µM)
- MIC ([7]; GC1131, read-out: MINIMAL INHIBITORY CONCENTRATION MIC, pre-incubated in Water): 4 µg/mL (≈ 5.28 µM)
- MIC [8, 21]: 2 µg/mL (≈ 2.64 µM)
- MIC [8, 22]: 4 µg/mL (≈ 5.28 µM)
- MINIMAL INHIBITORY CONCENTRATION MIC ([8]; pre-incubated in Mouse Serum): 4 UG/ML
- MIC [9, 21]: 4 µg/mL (≈ 5.28 µM)
- MIC [9, 22]: 8 µg/mL (≈ 10.6 µM)
- MINIMAL INHIBITORY CONCENTRATION MIC ([9]; pre-incubated in Mouse Serum): 8 UG/ML
- MIC [10]: > 64 µg/mL
- MIC [11]: 8 µg/mL (≈ 10.6 µM)
- MIC ([12]; GC2265, read-out: MINIMAL INHIBITORY CONCENTRATION MIC, pre-incubated in Mouse Serum): 2 µg/mL (≈ 2.64 µM)
- MIC ([12]; GC2265, read-out: MINIMAL INHIBITORY CONCENTRATION MIC, pre-incubated in Water): 8 µg/mL (≈ 10.6 µM)
- MINIMAL INHIBITORY CONCENTRATION MIC ([12]; pre-incubated in Mouse Serum): 4 UG/ML
- MIC [13]: > 64 µg/mL
- MIC [14]: > 64 µg/mL
- MIC ([15]; GC4555, read-out: MINIMAL INHIBITORY CONCENTRATION MIC, pre-incubated in Mouse Serum): 2 µg/mL (≈ 2.64 µM)
- MIC ([15]; GC4555, read-out: MINIMAL INHIBITORY CONCENTRATION MIC, pre-incubated in Water): 4 µg/mL (≈ 5.28 µM)
- MINIMAL INHIBITORY CONCENTRATION MIC ([15]; pre-incubated in Mouse Serum): 4 UG/ML
- ED50 ([16]; Staphylococcus aureus, in Mus musculus, iv, read-out: ED50 SIV (Staph aureus Smith)): 1.43 mg/kg
- ED50 ([16]; Staphylococcus aureus, in Mus musculus, po, read-out: ED50 SOD (Staph aureus Smith)): 5.68 mg/kg
- ED50 ([16]; Staphylococcus aureus, in Mus musculus, po, read-out: ED50 Staph Smith SOD): 5.68 mg/kg
- ED50 ([16]; iv, read-out: ED50 Staph Smith SIV): 1.43 mg/kg
- MIC ([17]; GC2267, read-out: MINIMAL INHIBITORY CONCENTRATION MIC, pre-incubated in Mouse Serum): 2 µg/mL (≈ 2.64 µM)
- MIC ([17]; GC2267, read-out: MINIMAL INHIBITORY CONCENTRATION MIC, pre-incubated in Water): 4 µg/mL (≈ 5.28 µM)
- MINIMAL INHIBITORY CONCENTRATION MIC ([17]; pre-incubated in Mouse Serum): 4 UG/ML
- MIC [18]: > 64 µg/mL
- MIC ([19]; GC6335, read-out: MINIMAL INHIBITORY CONCENTRATION MIC, pre-incubated in Mouse Serum): 2 µg/mL (≈ 2.64 µM)
- MIC ([19]; GC6335, read-out: MINIMAL INHIBITORY CONCENTRATION MIC, pre-incubated in Water): 4 µg/mL (≈ 5.28 µM)
- MINIMAL INHIBITORY CONCENTRATION MIC ([19]; pre-incubated in Mouse Serum): 4 UG/ML
- MIC [20]: > 64 µg/mL
